As usually defined, the Kd is a measure of binding affinity in units of concentration.

This experiment addresses T1, human P-Selectin protein (Homo sapiens, UniProt P16109).
T1 sequence (P16109 42-830): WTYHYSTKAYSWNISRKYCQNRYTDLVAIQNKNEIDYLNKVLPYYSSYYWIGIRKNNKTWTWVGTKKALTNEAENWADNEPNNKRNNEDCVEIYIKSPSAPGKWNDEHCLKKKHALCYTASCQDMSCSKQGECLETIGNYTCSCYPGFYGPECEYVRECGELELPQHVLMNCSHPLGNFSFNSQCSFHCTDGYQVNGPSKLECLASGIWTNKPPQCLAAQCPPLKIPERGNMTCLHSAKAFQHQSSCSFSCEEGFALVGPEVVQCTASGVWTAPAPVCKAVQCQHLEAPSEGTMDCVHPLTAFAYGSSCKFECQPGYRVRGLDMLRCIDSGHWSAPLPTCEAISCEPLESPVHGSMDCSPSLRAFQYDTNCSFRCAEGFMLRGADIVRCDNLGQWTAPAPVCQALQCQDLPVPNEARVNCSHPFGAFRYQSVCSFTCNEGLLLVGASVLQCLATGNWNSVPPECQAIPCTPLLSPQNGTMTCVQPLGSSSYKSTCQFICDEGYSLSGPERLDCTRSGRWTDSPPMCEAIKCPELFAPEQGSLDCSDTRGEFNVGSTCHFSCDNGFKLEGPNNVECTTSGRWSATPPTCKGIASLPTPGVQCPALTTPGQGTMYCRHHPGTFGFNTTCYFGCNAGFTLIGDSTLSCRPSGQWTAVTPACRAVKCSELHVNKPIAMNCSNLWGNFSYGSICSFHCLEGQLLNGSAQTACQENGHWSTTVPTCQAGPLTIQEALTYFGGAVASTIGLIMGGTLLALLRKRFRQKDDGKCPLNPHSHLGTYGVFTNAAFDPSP
Briefly: SPR binding assay (Biacore). Particulars: recombinant biotinylated human P-Selectin, 25° C. The protocol:
Biacore experiments were performed to determine ka (M−1s−1), kd (s−1), KD (nM) values of monomeric peptides binding to human Selectin proteins. Recombinant biotinylated human P-Selectin protein was used. For analysis of binding, either a Biacore 3000 or 5200 instrument was used with a CMS sensor chip (GE Healthcare). For sensor chip surface preparation, streptavidin was immobilized on the chip using standard amine-coupling chemistry at 25° C. with HBS-N (10 mM HEPES, 0.15 M NaCl, pH 7.4) as the running buffer. The carboxymethyl dextran surface was activated with a 12 min injection of a 1:1 ratio of 0.4 M 1-ethyl-3-(3-dim ethyl aminopropyl) carbodiimide hydrochloride (EDC)/0.1 M N-hydroxy succinimide (NHS) at a flow rate of 10 μl/min. For capture of streptavidin, protein was diluted to 0.2 mg/ml in 10 mM sodium acetate (pH 4.5) and captured by injecting 70 μl onto the activated chip surface. Residual activated groups were blocked with a 7 min injection of 1 M ethanolamine (pH 8.5). Biotinylated protein stock was diluted 1:100 in HBS-N and captured on one flow cell at 5 μl/min to a level of 1000-1500 RU. Buffer was changed to PBS/0.05% Tween 20 and a dilution series of the peptides was prepared in this buffer with a final DMSO concentration of 0.5%. The top concentration of the analyte varied from 200 nM to 50 μM; depending on predicted affinity of the interaction. In all cases a titration was performed with either seven 2-fold dilutions or five 3-fold dilutions. The SPR analysis was run at 25° C. with a flow rate of 50-80 μl/min with 60 seconds association and a suitable disassociation period (100-900 seconds). Data were corrected for DMSO excluded volume effects. All data were double-referenced for blank injections and reference surface using standard processing procedures and data processing and kinetic fitting were performed using Scrubber software, version 2.0c (BioLogic Software). Data were fitted using mass transport model allowing for mass transport effects where appropriate.
On the technique in general: SPR reads the build-up and loss of mass on a sensor chip optically.

Read-outs that look alike come from different tables or passages of the source. Starred links: 1 amine or outer side, 2 acyl side, 3 side chain; linkers in the order of their positions; H or OH if unused. Positions of bridges follow the written chain, without caps; N, C: chain ends. Residues, ends and D or L forms follow the SMILES beside them. Chains are numbered I, II in the order given. X2 = O=C(CCCC(=O)NCCOCCOCCOCCOCCOCCOCCOCCOCCOCCOCCOCCOCCOCCOCCOCCOCCOCCOCCOCCOCCOCCOCCOCCn1cc(CCC(=O)[*:2])nn1)NCCOCCOCCOCCOCCOCCOCCOCCOCCOCCOCCOCCOCCOCCOCCOCCOCCOCCOCCOCCOCCOCCOCCOCCn1cc(CCC(=O)[*:1])nn1; TATA = O=C(CC[*:1])N1CN(C(=O)CC[*:2])CN(C(=O)CC[*:3])C1

In the case of `CSCC[C@@H]1NC(=O)[C@H](Cc2ccc(O)cc2)NC(=O)[C@@H](NC(=O)[C@H](C)NC(C)=O)CSCCC(=O)N2CN3CN(C2)C(=O)CCSC[C@H](NC(=O)[C@H](Cc2c[nH]c4ccccc24)NC(=O)[C@H](CCC(=O)O)NC1=O)C(=O)N[C@@H](CC(=O)O)C(=O)N[C@@H](C(C)C)C(=O)N[C@@H]([C@@H](C)O)C(=O)N[C@@H](CC(=O)O)C(=O)N[C@@H](Cc1ccc(O)cc1)C(=O)NCC(=O)N[C@H](C(=O)N[C@@H](CCCCNC(=O)CCc1cn(CCOCCOCCOCCOCCOCCOCCOCCOCCOCCOCCOCCOCCOCCOCCOCCOCCOCCOCCOCCOCCOCCOCCOCCNC(=O)CCCC(=O)NCCOCCOCCOCCOCCOCCOCCOCCOCCOCCOCCOCCOCCOCCOCCOCCOCCOCCOCCOCCOCCOCCOCCOCCn2cc(CCC(=O)NCCCC[C@H](NC(=O)[C@@H]4CSCCC(=O)N5CN6CN(C5)C(=O)CCSC[C@H](NC(=O)[C@H](Cc5c[nH]c7ccccc57)NC(=O)[C@H](CCC(=O)O)NC(=O)[C@H](CCSC)NC(=O)[C@H](Cc5ccc(O)cc5)NC(=O)[C@@H](NC(=O)[C@H](C)NC(C)=O)CSCCC6=O)C(=O)N[C@@H](CC(=O)O)C(=O)N[C@@H](C(C)C)C(=O)N[C@@H]([C@@H](C)O)C(=O)N[C@@H](CC(=O)O)C(=O)N[C@@H](Cc5ccc(O)cc5)C(=O)NCC(=O)N4)C(N)=O)nn2)nn1)C(N)=O)CSCCC3=O` [BCY5457] (I: Ac-ACYMEWCDVTDYGCK-NH2 / II: Ac-ACYMEWCDVTDYGCK-NH2; linker I:2-I:7-I:14, II:2-II:7-II:14 via TATA; linker I:15-II:15 via X2), the Kd (Affinity KD determined by SPR) is 969 nM. Consider `CSCC[C@@H]1NC(=O)[C@H](Cc2ccc(O)cc2)NC(=O)[C@@H](NC(=O)[C@H](C)NC(=O)CCc2cn(CCOCCOCCOCCOCCOCCOCCOCCOCCOCCOCCNC(=O)CCOCCN(CCOCCC(=O)NCCOCCOCCOCCOCCOCCOCCOCCOCCOCCOCCn3cc(CCC(=O)N[C@@H](C)C(=O)N[C@H]4CSCCC(=O)N5CN6CN(C5)C(=O)CCSC[C@H](NC(=O)[C@H](Cc5c[nH]c7ccccc57)NC(=O)[C@H](CCC(=O)O)NC(=O)[C@H](CCSC)NC(=O)[C@H](Cc5ccc(O)cc5)NC4=O)C(=O)N[C@@H](CC(=O)O)C(=O)N[C@@H](C(C)C)C(=O)N[C@@H]([C@@H](C)O)C(=O)N[C@@H](CC(=O)O)C(=O)N[C@@H](Cc4ccc(O)cc4)C(=O)NCC(=O)N[C@H](C(=O)N[C@@H](C)C(N)=O)CSCCC6=O)nn3)CCOCCC(=O)NCCOCCOCCOCCOCCOCCOCCOCCOCCOCCOCCn3cc(CCC(=O)N[C@@H](C)C(=O)N[C@H]4CSCCC(=O)N5CN6CN(C5)C(=O)CCSC[C@H](NC(=O)[C@H](Cc5c[nH]c7ccccc57)NC(=O)[C@H](CCC(=O)O)NC(=O)[C@H](CCSC)NC(=O)[C@H](Cc5ccc(O)cc5)NC4=O)C(=O)N[C@@H](CC(=O)O)C(=O)N[C@@H](C(C)C)C(=O)N[C@@H]([C@@H](C)O)C(=O)N[C@@H](CC(=O)O)C(=O)N[C@@H](Cc4ccc(O)cc4)C(=O)NCC(=O)N[C@H](C(=O)N[C@@H](C)C(N)=O)CSCCC6=O)nn3)nn2)CSCCC(=O)N2CN3CN(C2)C(=O)CCSC[C@H](NC(=O)[C@H](Cc2c[nH]c4ccccc24)NC(=O)[C@H](CCC(=O)O)NC1=O)C(=O)N[C@@H](CC(=O)O)C(=O)N[C@@H](C(C)C)C(=O)N[C@@H]([C@@H](C)O)C(=O)N[C@@H](CC(=O)O)C(=O)N[C@@H](Cc1ccc(O)cc1)C(=O)NCC(=O)N[C@H](C(=O)N[C@@H](C)C(N)=O)CSCCC3=O` [BCY5458], for which, under “read-out: Affinity KD determined by SPR”, the Kd worked out at 400 nM.

The values are drawn from patent US12150998B2, “Bicyclic peptide ligands specific for P-selectin” (BicycleTx Limited, priority 2021, dated 2024).
